Source: ChEMBL document CHEMBL5233242, “Dihydrofolate reductase inhibitors for use as antimicrobial agents” (Eur J Med Chem, 2020)
Converted amounts (≈) assume the structure as drawn.

Legend:
[1] = test system: Mycobacterium tuberculosis; experiment: Antibacterial activity against extensively drug-resistant Mycobacterium tuberculosis 5; assay type: functional
[2] = test system: Mycobacterium tuberculosis; experiment: Antibacterial activity against multi drug-resistant Mycobacterium tuberculosis 365; assay type: functional

SMILES | MIC [1] [µM] | MIC [2] [µM]
CCc1nc(N)nc(N)c1C#C[C@H](C)c1cc(OC)cc(-c2ccc(C(=O)O)cc2)c1 | 0.6 (≈ 0.25 µg/mL) | < 0.072
CCc1nc(N)nc(N)c1C#CCc1cc(OC)cc(-c2ccc(C(=O)O)cc2)c1 | 4.97 (≈ 2 µg/mL) | 0.311 (≈ 0.125 µg/mL)
